In one data set the target is T1, OR5P3 (Homo sapiens, UniProt Q8WZ94).
T1 construct: host or cells: Hana3A cells (HEK293T-derived), co-transfected with pCI-RTP1S and pGlo-22F
T1 sequence (Q8WZ94 1-311): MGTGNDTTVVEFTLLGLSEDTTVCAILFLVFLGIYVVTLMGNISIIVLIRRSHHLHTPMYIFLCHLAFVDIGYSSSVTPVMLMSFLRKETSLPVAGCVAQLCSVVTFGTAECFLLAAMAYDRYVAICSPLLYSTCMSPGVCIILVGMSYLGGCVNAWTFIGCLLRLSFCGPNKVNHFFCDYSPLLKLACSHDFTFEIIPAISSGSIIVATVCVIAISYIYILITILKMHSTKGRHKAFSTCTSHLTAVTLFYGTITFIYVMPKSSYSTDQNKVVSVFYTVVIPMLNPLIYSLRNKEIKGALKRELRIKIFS
The data set can be described thus: GloSensor cAMP assay, OR5P3-transfected Hana3A cells. The format is cell-based. To be noted: activation of OR5P3, Hana3A cells, mean ± s.e.m., at least three experiments. An excerpt:
(§1) To validate predicted interactions between odorant compounds and ORs or the CB1 receptor, we used the GloSensor cAMP assay from Promega and measured the EC50 values of compounds. This luminescent assay is a sensitive method for measuring Gs and Gi- protein coupled receptor activation by real-time detection of intracellular second messenger cAMP [44]. The protocol is described in the GloSensor cAMP assays paragraph in the Supplementary Methods (S_file).
(§2) All odorants used in these assays were purchased from Sigma-Aldrich (Saint-Quentin Fallavier, France) except celery ketone, which was kindly provided by B. Schilling (Givaudan Schweiz AG, Dübendorf, Switzerland). The stock solutions of odorants (100 mM) were prepared in dimethylsulfoxide (DMSO) and were stored at -20°C. Immediately prior to the assays, the stock solutions of odorants were diluted in the CO2-independent medium (Gibco®, Life Technologies) to the appropriate concentrations. The final concentration of DMSO in wells never exceeded 1% (v/v); this concentration had no effect on GloSensor cAMP assays.
(§3) To validate predicted odorant compound-OR interactions, we used the GloSensor™ cAMP assay (Promega, Charbonnières-Les-Bains, France) to measure EC50 values of compounds. The functional assay was performed in Hana3A cells, a HEK293T-derived cell line optimized for OR expression. Hana3A cells were grown in Minimal Essential Medium (MEM; Life Technologies, Villebon-sur-Yvette, France) supplemented with 10% fetal bovine serum (PAA Laboratories, Les Mureaux, France), 100 μM Eagle’s non-essential amino acids, 2 mM glutamax (Life Technologies) and 1 μg/ml puromycin (Sigma-Aldrich, Saint-Quentin Fallavier, France). The cells were cultured at 37°C in a humidified atmosphere containing 7.3% CO2. Forty-eight hours before performing the GloSensor™ cAMP assay, cells were plated on poly-D-lysine coated 96-well plates (BD Biosciences, Le Pont de Claix, France) at a density of 3x10^4 cells per well. […] Luminescence was measured with a Victor 3V plate reader (Perkin Elmer, Courtaboeuf, France) after addition of odorant solutions (10 μl). […]
Background: cAMP levels reflect the balance of adenylyl cyclase and phosphodiesterase activity.

A further data set relates to Hana3A cells. Briefly: Cytotoxic effects seen in the OR GloSensor assay. The data set is classed as cell-based. To be noted: no saturation of the response could be observed. Here is the method: as §3, with “well. Twenty-four hours later, cells were transiently transfected with the OR expression plasmid (50 ng per well) together with the pCI-RTP1S plasmid and the pGlo™-22F cAMP plasmid (Promega) (10 ng and 100 ng per well, respectively) using Fugene®HD (Promega) according to the manufacturer instructions.” for “well.”

The target in data set [1] is human cannabinoid receptor CB1 (Homo sapiens, UniProt P21554). The data set can be described thus: GloSensor cAMP assay, CB1-transfected HEK293 cells. The format is cell-based. To be noted: for EC50: increase in cAMP production, forskolin-stimulated control cells, mean ± s.e.m., three experiments.
Chain of human cannabinoid receptor CB1 (P21554 whole entry): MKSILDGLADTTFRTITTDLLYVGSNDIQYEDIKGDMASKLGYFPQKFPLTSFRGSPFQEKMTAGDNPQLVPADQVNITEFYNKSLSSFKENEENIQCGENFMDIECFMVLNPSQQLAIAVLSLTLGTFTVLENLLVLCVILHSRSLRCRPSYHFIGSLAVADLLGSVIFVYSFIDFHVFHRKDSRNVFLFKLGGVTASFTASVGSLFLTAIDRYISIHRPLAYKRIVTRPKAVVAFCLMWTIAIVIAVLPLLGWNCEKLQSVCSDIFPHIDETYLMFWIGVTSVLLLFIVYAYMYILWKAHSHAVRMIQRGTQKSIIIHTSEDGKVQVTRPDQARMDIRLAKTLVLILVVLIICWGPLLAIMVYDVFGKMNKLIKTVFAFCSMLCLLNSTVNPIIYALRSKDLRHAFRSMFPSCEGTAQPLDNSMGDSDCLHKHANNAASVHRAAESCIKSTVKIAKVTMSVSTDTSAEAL
For another data set, the target named is T2, OR2W1 (Homo sapiens, UniProt Q9Y3N9).
T2 construct: host or cells: Hana3A cells (HEK293T-derived), co-transfected with pCI-RTP1S and pGlo-22F
T2 sequence (Q9Y3N9 1-320): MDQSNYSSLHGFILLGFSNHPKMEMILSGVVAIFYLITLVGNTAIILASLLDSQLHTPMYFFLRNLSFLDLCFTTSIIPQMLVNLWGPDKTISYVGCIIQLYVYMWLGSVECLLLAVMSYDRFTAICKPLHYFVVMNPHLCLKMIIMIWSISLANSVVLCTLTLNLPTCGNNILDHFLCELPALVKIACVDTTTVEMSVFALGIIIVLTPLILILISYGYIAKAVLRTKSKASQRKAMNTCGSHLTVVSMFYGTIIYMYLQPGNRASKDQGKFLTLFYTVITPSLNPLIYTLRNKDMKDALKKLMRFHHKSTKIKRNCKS
The data set can be described thus: GloSensor cAMP assay, OR2W1-transfected Hana3A cells. To be noted: activation of OR2W1, Hana3A cells, mean ± s.e.m., at least three experiments. The format is cell-based.
Excerpt: as §1, §2, §3

The target in a further data set is T3, OR51E1 (Homo sapiens, UniProt Q8TCB6).
T3 construct: host or cells: Hana3A cells (HEK293T-derived), co-transfected with pCI-RTP1S and pGlo-22F
T3 sequence (Q8TCB6 1-318): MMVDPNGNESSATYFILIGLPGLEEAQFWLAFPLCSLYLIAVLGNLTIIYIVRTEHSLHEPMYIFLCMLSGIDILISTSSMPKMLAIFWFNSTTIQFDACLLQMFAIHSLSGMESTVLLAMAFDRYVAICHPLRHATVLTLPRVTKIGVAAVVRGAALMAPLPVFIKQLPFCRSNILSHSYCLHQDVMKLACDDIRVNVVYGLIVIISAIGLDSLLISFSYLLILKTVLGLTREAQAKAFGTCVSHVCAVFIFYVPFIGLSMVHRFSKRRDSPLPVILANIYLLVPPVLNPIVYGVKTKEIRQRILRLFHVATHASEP
Briefly: GloSensor cAMP assay, OR51E1-transfected Hana3A cells. The data set is classed as cell-based.
Excerpt: as §1, §2
as §3, with “well. Twenty-four hours later, cells were transiently transfected with the OR expression plasmid (50 ng per well) together with the pCI-RTP1S plasmid and the pGlo™-22F cAMP plasmid (Promega) (10 ng and 100 ng per well, respectively) using Fugene®HD (Promega) according to the manufacturer instructions. In addition, to check that induced activities are OR-dependent, mock transfections were performed by transfecting the cells with the pCI plasmid in place of the OR expression plasmid.” for “well.”

Data set [2] has as its target T4, human PPARγ ligand binding domain (Homo sapiens, UniProt P37231).
T4 sequence (P37231 238-503 limits assumed): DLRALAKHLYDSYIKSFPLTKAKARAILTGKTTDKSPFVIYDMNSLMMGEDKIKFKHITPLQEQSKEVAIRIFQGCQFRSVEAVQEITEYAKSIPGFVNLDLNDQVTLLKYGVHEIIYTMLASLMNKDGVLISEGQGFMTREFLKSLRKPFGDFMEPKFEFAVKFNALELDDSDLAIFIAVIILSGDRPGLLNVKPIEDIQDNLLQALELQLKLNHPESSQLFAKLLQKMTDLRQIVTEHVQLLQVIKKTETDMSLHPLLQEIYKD
Briefly: Competitive PPARγ binding assay (LanthaScreen TR-FRET). To be noted: IC50 (inhibition of binding), displacement of fluorescent pan PPAR agonist tracer. In general terms: TR-FRET usually uses a lanthanide donor and a delayed reading to cut background.
Experimental: To validate predictions of odorant-PPARγ interactions, IC50 values for respective compounds were determined by competitive binding using time-resolved fluorescence resonance energy transfer (LanthaScreen, Invitrogen) on a Wallac EnVision (PerkinElmer).
To validate predictions of odorant-PPARγ interactions, IC50 values for respective compounds were determined by competitive binding using time-resolved fluorescence resonance energy transfer (LanthaScreen, Invitrogen) on a Wallac EnVision (PerkinElmer). A terbium labeled anti-GST antibody was used to label purified GST-tagged human PPARγ ligand binding domain. Energy transfer from terbium to the tracer, a fluorescent pan PPAR agonist, enabled read-out of each test compound’s ability to displace the tracer. […] An unrestrained sigmoidal (one-binding site) dose-response curve was fitted to each data set by linear regression allowing for determination of IC50 values.

[3] abbreviates: absence or presence of pertussis toxin.
Where [4] appears, read: activation of OR51E1, Hana3A cells, mean ± s.e.m., at least three experiments, read-out: EC50.

This note sets out measurements from PMC3973694, “Identification of Odorant-Receptor Interactions by Global Mapping of the Human Odorome” (PLoS ONE, 2014).

By EC50 is commonly meant the midpoint of the concentration-response curve. One may read the IC50 as the point on the concentration scale where inhibition reaches its midpoint. A lower IC50 goes with greater potency in that assay.

Where “and” joins values, the source holds several entries; their conditions need not be identical. Identical values can stand only once. Counter-ions that a name gives are not always drawn. Like-named read-outs stand apart in the source and are kept apart here.

Regarding `C=C(C)C1CC=C(C)C(=O)C1` (single isomer, unassigned; (-)) [(-)-carvone, reference compound], the EC50 at OR5P3 was determined as 388 µM.

For the molecule `CCCCCCCCO` [1-octanol], the “concentrations with cytotoxic effects” value with Hana3A cells is on record as “higher than 10^−3 M”. Besides, the EC50 at OR5P3 was 115 µM. In the case of `CCCCCCCC(C)=O` [2-Nonanone], the “mode of action at CB1” value in data set [1] (setting [3]) is “inverse agonists”. For the same molecule, in data set [1], it took 363 ± 80.7 µM to reach a half-maximal effect (EC50). On the same counts, the results for `CCCCCC(=O)OCCc1ccccc1` [2-Phenylethyl hexanoate] are “inverse agonists” and 509 ± 8.3 µM. With `CC(=O)OCc1ccccc1` [Benzyl acetate, reference compound], the EC50 on OR2W1 turned out to be 34.3 ± 1.17 µM. As for `CC(C)=CCC/C(C)=C/C=O` [Citral], the EC50 at OR2W1 was 129 µM. Molecule `CC(C)=CCCC(C)CC=O` (stereo not drawn) [Citronellal] gave an EC50 at OR2W1 of 208 µM. For the molecule `CCCCCCC(C)(C)c1cc(O)c2c(c1)OC(C)(C)[C@@H]1CC=C(CO)C[C@@H]21` [HU210, (6aR)-trans-3-(1,1-dimethylheptyl)-6a,7,10,10a,-tetrahydro-1-hydroxy-6,6-dimethyl-6H-dibenzo[b,d]pyran-9-methanol, reference compound], the “mode of action at CB1” value in data set [1] is listed as “agonists”.

With `CC(C)CC(=O)O` [Isovaleric acid], the EC50 at OR51E1 (setting [4]) turned out to be 153 µM. On OR51E1, `CCCCCCCCC(=O)O` [Nonanoic acid, reference compound] returned an EC50 of 197 µM.

In the case of `CCC(=O)O` [Propionic acid], on OR51E1 (OR51E1, compared with isovaleric acid and nonanoic acid), the fold lower activity is on record as 5 fold. On OR51E1 (setting [4]), the EC50 amounted to 923 µM. Consider `CCCCOC(=O)CC(CC(=O)OCCCC)(OC(C)=O)C(=O)OCCCC` [Tributyl acetyl citrate], for which, in data set [1] (setting [3]), the “mode of action at CB1” value is reported as “inverse agonists”. The molecule further had an EC50 in data set [1] of 122 ± 25.2 µM. For the molecule `CCCC1CC(=O)C=C(C)C1` (stereo not drawn) [celery ketone], in the data set with Hana3A cells, the “concentrations with cytotoxic effects” value was “higher than 10^−3 M”. The same molecule showed an EC50 on OR5P3 of 483 µM. Consider `O=C1C[C@@H](c2ccc(O)cc2)Oc2cc(O)cc(O)c21` [naringenin], for which the IC50 in data set [2] amounted to 7.4 µM. On the same count and under the same terms, with `O=C(OCCc1ccccc1)c1ccccc1O` [phenylethyl salicylate] the figure was 9.2 µM and 14.7 µM.
